Assay results: patent US20240252463A1, “METHODS OF TREATING FIBROTIC PATHOLOGIES” (Mayo Foundation for Medical Education and Research, priority 2018, published 2024)

Tests used:
YAP/TAZ = YAP/TAZ localization in pulmonary epithelial (NHAEpC) and endothelial (NHMVEC) cells; assay type: cell-based, human; conditions: FIG. 2b
Method: Scale bar represents 100 μm. […] Scale bar represents 100 μm.
ImmunofluorescenceMicroscopy: Cells were plated into 96 well plates (Corning 3603) in their specific growth media and allowed to attach (8 hours). Media was then exchanged for the indicated conditions for each experiment. Cells were fixed in 3.7% formalin (Sigma-Aldrich), permeabilized in 0.25% Triton X-100 (Sigma-Aldrich) and then blocked with 1% BSA for 1 h. Cells or tissue sections were incubated overnight with mouse monoclonal antibody against αSMA (Sigma-Aldrich F3777), and/or a rabbit monoclonal antibody against YAP/TAZ (Cell Signaling D24E4) diluted 1:200 in PBS with 1% BSA. Cells were then washed and exposed to flourescence-conjugated secondary antibodies (Invitrogen) diluted 1:1000 and DAPI (Thermo Fisher Scientific). Images were taken with a Cytation5 (BioTek) microscope. For scoring αSMA positive cells (FIG. 3b), an observer blinded to the treatment conditions counted αSMA-positive cells using a visual threshold for bright fibrous staining; a minimum of 200 cells was counted for each condition. YAP/TAZ localization was quantified (FIG. 2, 6, 8) using Gen5 (Biotek) software. […] Quantification of double positive (YAP/TAZ and αSMA) cells from lung tissue sections (FIG. 4d) was performed similarly; however separate thresholds were established for both YAP/TAZ and αSMA. A minimum of 4000 cells was quantified for each mouse.

[1] = test system: bleomycin-induced pulmonary fibrosis; assay: Bleomycin Mouse Study, dihydrexidine treatment; assay type: in vivo
Method: Bleomycin Mouse Study: In the initial in vivo siRNA study (FIG. 5), adult male age-matched C57BL/6N mice at 6-8 weeks of age were purchased from the National Cancer Institute (NCI)-Frederick Mouse Repository (Frederick, MD, USA). All experiments were performed in accordance with National Institute of Health guidelines and protocols approved by the Massachusetts General Hospital Subcommittee on Research Animal Care, and maintained all mice in a specific pathogen-free (SPF) environment certified by the American Association for Accreditation of Laboratory Animal Care (AAALAC). 6-8 weeks old mice were anesthetized with ketamine and xylazine before exposure of the trachea. Lung fibrosis was induced by intratracheal injection of bleomycin (50 μl at 1.2 U/kg) or phosphate buffered saline (PBS; as control) on day 0. After 14 days Small interfering RNA (siRNA) duplexes targeting mouse Yap (L-046247-01-0005) or Taz (L-058248-01-0005) mRNA (Dharmacon) or nontargeting control siRNA were administered in vivo by intratracheal instillation at a single dose of 25 μg (each siRNA) per mouse. On day 21 Mice were sacrificed and lungs harvested for collagen determination and biochemical analyses. To obtain BAL samples for total protein concentration determination, lungs were lavaged with six 0.5-ml aliquots of PBS. BAL samples were centrifuged at 3,000 g for 20 min at 4° C. and transferred the supernatants to siliconized low-binding Eppendorf tubes (PGC Scientifics) for subsequent analysis. Total protein concentration of the BAL fluid was determined by BCA Protein Assay Kit (Pierce). In the dihydrexidine treatment studies (FIG. 4), 8 week old female C57/BL6 mice were purchased from Charles River Laboratories. Mouse lung fibrosis was induced with bleomycin (BLEO; Fresenius Kabi) delivered intratracheally (3 U/kg) to the lungs using MicroSprayer® Aerosolizer (Penn-Century). The Sham mice received sterile 0.9% saline instead using identical methods. Mice were weighed every 24 hrs, and both groups were then randomized at day 10 into DHX and Control treatment groups, matching for the degree of weight change. DHX (5 mg/kg) was administered everyday intranasally (i.n.) dissolved in surfactant (infasurf) which has previously shown to aid in spreading to pulmonary aveoli for 14 days. The control groups of mice received the equivalent vehicle dose of surfactant. Following the final DHX treatment, mice were sacrificed and the right lungs were inflated with 4% paraformaldehyde (PFA) and further incubated in 4% PFA for 24 hours prior processing for paraffin embedding. The left lobe of the lung was snap frozen in liquid nitrogen for RNA isolation and hydroxyproline assay. Experimental procedures were approved by the Mayo Clinic Institutional Animal Care and Use Committee and the animals were handled in accordance with their guidelines.
Histological Scoring: Five μm thick sections were cut from Paraffin embedded lung tissues, and the sections were stained either with hematoxylin and eosin (H&E) or with Masson's Trichrome stain kit (Abcam). All H&E-stained slides and trichrome-stained slides were reviewed in a blinded fashion by a thoracic pathologist. The severity of interstitial and peribronchiolar lung immature and mature fibrosis was estimated on a numerical scale according to Ashcroft et al. For scoring purposes, all H&E stained slides were systematically scanned at 100× magnification and successive 100× fields were scored. Scoring was based on the following scale: 0 (no fibrosis), 1 (minimal interstitial and/or peribronchiolar thickening due to fibrosis), 3 (moderate thickening without obvious architectural distortion), 5 (increased fibrosis with formation of fibrous bands and/or small masses), 7 (severe architectural distortion with large areas of fibrosis and areas of honeycomb changes), and 8 (total fibrous obliteration of the field). The predominant score for each field was recorded. The mean of all scores was calculated for each case. […]

human dermal fibroblasts = assay: Profibrotic gene expression in human dermal fibroblasts +/- TGFβ; assay type: cell-based; conditions: 24 hours +/− 2 ng/mL TGFβ
Method: Human dermal fibroblasts treated for 24 hours+/−2 ng/mL TGFβ and D1 agonists: DHX and A68930 prior to RNA isolation. N=2. For all other in vitro experiments, cells were treated as indicated prior to RNA isolation using RNeasy Plus Mini Kit (Qiagen) according to manufacturer's instructions. Isolated RNA (250 ng) was then used to synthesize cDNA using SuperScript VILO (Invitrogen). Quantitative PCR was performed using FastStart Essential DNA Green Master (Roche) and analyzed using a LightCycler 96 (Roche). Data are expressed as a fold change by ΔΔCt relative to GAPDH. For in vivo experiments, tissue was immediately frozen, and stored at −80° C. RNA isolation, cDNA synthesis, and qPCR analysis were performed as above.

[2] = bleomycin mice, 5 mg/kg once daily i.n., day 24

## Oc1cc2c(cc1O)[C@H]1c3ccccc3CN[C@@H]1CC2 (racemic) [Dihydrexidine, dihydrexidine]
YAP/TAZ
  YAP/TAZ localization in pulmonary epithelial and endothelial cells: had no effect on YAP/TAZ localization
[1]; Sham DHX mice, identical time course and route
  lung remodeling in the absence of fibrosis (body weight, histology, collagen, gene expression): did not differ from those of control mice
[1]; bleomycin mice, 5 mg/kg once daily i.n. from Day 10
  weight change: lost significantly less weight
[1]; [2]
  lung histology (Ashcroft, blinded pathologist): nearly completely protected from lung remodeling
  staining for YAP and TAZ in the lungs: attenuated by DHX treatment
  total collagen in the lungs (hydroxyproline): nearly identical to sham treated mice
  transcript levels of Acta2, Ctgf, Fn1, Col1a1, Col1a2, Yap and Taz in lung: significantly attenuated
Human dermal fibroblasts
  profibrotic gene expression in human dermal fibroblasts: blocks profibrotic gene expression
